# Laboratory results from patent US6346514B1, “Pharmaceutical lysine-containing polypeptide compositions and methods of use thereof” (priority 1991, dated 2002).
# What was measured:
# [1] = test system: blood lymphoid cells and immune organs after irradiation; assay: Effect on immune system of irradiated guinea pigs; type: in vivo
# Description: Twenty-two male guinea pigs were used in the following test.
# Guinea pigs were exposed to irradiation in a total. does 1Gy.target-skin distance—70 cm; time of exposure—2′48″ Device: 180 kV; 15 mA; filter 0.5 Cu Treatment: i.m. single daily 1 microg. HM897 per kg for 5 days.
# Treatment of controls: normal saline 0.5 ml i.m. single daily for 5 days.
# Leukocyte and lymphocyte levels were measured in peripheral blood on the 7th, 14th, 21st, 36th and 44th day after irradiation.
# In a second test 40 male guinea pigs were used, and the same regimen was followed.
# There were two controls—irradiated and non-irradiated. Parameters were evaluated on the 8th and 21st days after irradiation. Tested parameters: clinical blood examination, non-specific resistance by lysosomal cationic test; “active” T-lymphocytes and total T-lymphocytes (E-RFC), B-lymphocytes (EAC-RFC) were measured in blood, thymus, lymph nodes, spleen and red bone marrow. Blood lymphocyte functional activity was evaluated by leukocyte migration inhibition (LMI) with ConA. Histological examinations of thymus, spleen, lymph nodes, bone marrow and adrenals were carried out.
# [2] = test system: lymphoid cells differentiation; assay: Effects in thymectomized guinea pigs; type: in vivo; settings: thymectomized animals; 1 microg per kg i.m. daily for 10 days; 15th day
# Description: Model: Thymectomy (removal of thymus): 30 mongrel male guinea pigs. Treatment: i.m. single daily 1 microg HM897 per kg for 10 days. Treatment of controls: normal saline 0.5 ml i.m. single daily for 10 days (there were two controls—thymectomized and sham-operated). Parameters were determined on the 15th day after onset of the treatment. Tested parameters: clinical blood examination, “active” T-lymphocytes and total T-lymphocytes (E-RFC), B-lymphocytes (EAC-RFC) were measured in blood, thymus, lymph nodes, spleen and red bone marrow.
# [3] = test system: trypsinized thymocytes; assay: Restoration of rosette-forming capacity (E-RFC) of trypsinized thymocytes; type: cell-based, guinea-pig; settings: concentration 10 microg/ml (most active of 1, 10, 100)
# Description: Model: A. This work was designed to study the restoration of superficial receptors on lymphocytes after proteolytic digestion or after severe secondary immunodeficiency. Thymocytes obtained from guinea-pig were trypsinized and then their rosette-forming capacity with rabbit erythrocytes (E-RFC) was evaluated. The cells were incubated with the peptide in concentrations 1, 10 and 100 microg/ml. There were two controls—intact thymocytes (not trypsinized) and trypsinized thymocytes not incubated with the peptide.
# [4] = test system: B-lymphocytes; assay: Ig-receptor expression on B-lymphocytes of patients with secondary immunodeficiency; type: cell-based, human; settings: concentration 1 microg/ml
# Description: The number of cells carrying Ig-receptors before and after incubation with the peptide has been measured (by means for FITC-labelled sera against human Ig).
# [5] = test system: posthemorrhagic anemia; assay: Erythropoietic effect in posthemorrhagic anemia; type: in vivo, mice
# Description: (§1) This test was designed to study posthemorrhagic anemia (acute blood loss caused by taking blood from retroorbital sinus), and hemolytic anemia induced by phenylhydrazine hydrochloride (120 mg active ingredients/kg 30 Balb/c-mice and 30 CBA-mice). HM897 was injected intraperitoneally in doses of 100 and 150 microg per kg, 3 hours and 1 day after intervention modelling anemia, for 5 days. Tester parameters: RBC, leukocytes, reticulocytes, Hb, Hct
# [6] = test system: hemolytic anemia induced by phenylhydrazine hydrochloride; assay: Erythropoietic effect in hemolytic phenylhydrazine-induced anemia; type: in vivo, mice; settings: 3rd day of administration
# Description: as §1
# [7] = test system: guinea-pig myelokaryocytes; assay: Colony-forming activity of macrophage precursors; type: cell-based; settings: tested 1.0 to 0.0000001 microg/ml
# Description: This test is designed to study macrophage precursors. Cultured cells used were guinea-pig myelokaryocytes. HM897 was added to cell culture in concentrations 1.0, 0.001, 0.00001 and 0.0000001 microg/ml.
# [8] = test system: methicillin-resistant S. aureus; assay: Survival of mice inoculated with 10xLD50 S. aureus, HM897 pretreatment with or without Ampicillin; type: in vivo
# Description: As in Example 8, animals were inoculated intraperitoneally with 10×LD50 of a methicillin-resistant S. aureus suspended in brain-heart infusion broth containing 5 percent mucin. Different treatments were administered s.c., i.p., or p.o., one hour later and deaths occurring during the subsequent three days were recorded. If significant prevention of mortality (>50 percent survival) was observed, the minimum effective dose (MED) was determined.
# Two control experiments were conducted. HM897 was administered as a pretreatment prior to microbial inoculation, and saline was administered i.p. The number of survivors at 72 hours was determined. […] The number of survivors at 72 hours was recorded.
# Survival statistics were determined over the periods of 12, 24, 36, 48, and 72 hours. […] Survival statistics were determined over periods of 12, […], 36, 48, and 72 hours. The method of conducting the experiment is illustrated in FIG. 5.
# [9] = 12 HOURS after inoculation, HM897 10 mcg/kg
# [10] = 12 HOURS after inoculation, HM897 100 mcg/kg
# [11] = 12 HOURS after inoculation, HM897 1000 mcg/kg
# [12] = 24 HOURS after inoculation, HM897 10 mcg/kg
# [13] = 24 HOURS after inoculation, HM897 100 mcg/kg
# [14] = 24 HOURS after inoculation, HM897 1000 mcg/kg
# [15] = 36 HOURS after inoculation, HM897 10 mcg/kg
# [16] = 36 HOURS after inoculation, HM897 100 mcg/kg
# [17] = 36 HOURS after inoculation, HM897 1000 mcg/kg
# [18] = 48 HOURS after inoculation, HM897 10 mcg/kg
# [19] = 48 HOURS after inoculation, HM897 100 mcg/kg
# [20] = 48 HOURS after inoculation, HM897 1000 mcg/kg
# [21] = 72 HOURS after inoculation, HM897 10 mcg/kg
# [22] = 72 HOURS after inoculation, HM897 100 mcg/kg
# [23] = 72 HOURS after inoculation, HM897 1000 mcg/kg
substance,measurement,setting,value
Thr-Ala-Glu-Glu-Lys (TAEEK) [HM897],leukocyte and lymphocyte levels in peripheral blood,"[1]; irradiation 1 Gy, 1 microg per kg i.m. daily for 5 days, days 7-44",restoration of leukocyte and lymphocyte levels
same,peripheral blood lymphocytes and neutrophil functional activity,"[1]; second test, irradiated animals",restored peripheral blood lymphocytes and neutrophil functional activity
same,T-lymphocyte maturation and migration,"[1]; second test, irradiated animals, early terms of observation",accelerates T-lymphocyte maturation and their migration to peripheral immune organs
same,proliferation and differentiation in organs of the immune system,"[1]; second test, irradiated animals, later stage of the study",enhancement of proliferation and differentiation in both central and peripheral organs of the immune system
same,lymphoid cells differentiation,[2],does not stimulate lymphoid cells differentiation
same,biological activity (percentage of rosette-forming capacity restoration),[3],78/9
same,cells carrying Ig-receptors of different types,[4],significant increase
same,Hb level and plasma/formed elements ratio restoration,[5],more rapid
same,most effective dose,[5]; doses 100 and 150 i.p.,0.15 mg/kg
same,RBC count,[5]; on the 6th day after administration,7.1 mln/ml
same,erythrocytes,[6],7.2 mln/ml
same,concentration from which macrophage precursors colony-forming activity is stimulated,[7],≥ 0.0000001 µg/mL
same,Deaths,[8]; [9],0
same,Survival,[8]; [9],100.00%
same,Survivors,[8]; [9],18
same,Deaths,[8]; [10],0
same,Survival,[8]; [10],100.00%
same,Survivors,[8]; [10],18
same,Deaths,[8]; [11],1
same,Survival,[8]; [11],94.44%
same,Survivors,[8]; [11],17
same,Deaths,[8]; [12],5
same,Survival,[8]; [12],72.22%
same,Survivors,[8]; [12],13
same,Deaths,[8]; [13],3
same,Survival,[8]; [13],83.33%
same,Survivors,[8]; [13],15
same,Deaths,[8]; [14],2
same,Survival,[8]; [14],88.89%
same,Survivors,[8]; [14],16
same,Deaths,[8]; [15],12
same,Survival,[8]; [15],33.33%
same,Survivors,[8]; [15],6
same,Deaths,[8]; [16],8
same,Survival,[8]; [16],55.56%
same,Survivors,[8]; [16],10
same,Deaths,[8]; [17],7
same,Survival,[8]; [17],61.11%
same,Survivors,[8]; [17],11
same,Deaths,[8]; [18],14
same,Survival,[8]; [18],22.22%
same,Survivors,[8]; [18],4
same,Deaths,[8]; [19],12
same,Survival,[8]; [19],33.33%
same,Survivors,[8]; [19],6
same,Deaths,[8]; [20],11
same,Survival,[8]; [20],38.89%
same,Survivors,[8]; [20],7
same,Deaths,[8]; [21],14
same,Survival,[8]; [21],22.22%
same,Survivors,[8]; [21],4
same,Deaths,[8]; [22],12
same,Survival,[8]; [22],33.33%
same,Survivors,[8]; [22],6
same,Deaths,[8]; [23],11
same,Survival,[8]; [23],38.89%
same,Survivors,[8]; [23],7
same,survival after normally lethal i.p. dose of S. aureus,[8]; HM897 pretreatment,dramatic improvement in survival
same,Survival,"[8]; at 36 hours, across HM897 dose groups",≤ 61%
same,Survival,"[8]; by 72 hours, across HM897 dose groups",22-39%
